Consider eleven molecules from patent US4377697A, “Imidazole hydrazone and hydrazine derivatives” (priority 1982, dated 1983).

Values after ≈ are worked out from the molar mass of the structure shown. Where a name gives a salt, the structure may show the parent alone. Read-outs that look alike come from different tables or passages of the source.

For data set [1], the system named is Clostridium sporogenes. In words: in vitro anti-anaerobic assay, minimum inhibitory concentration. The class given is cell-based, Clostridium sporogenes (ATCC 19404). As to conditions: ATCC 19404, 24 hours at 37° C., range of three runs; for MIC: Clostridium sporogenes, ATCC19404, 24 h, read-out: Minimum Inhibitory Concentrations, Clostridium sporogenes. As to the method: (§1) The results of in vitro assays for a number of compounds according to the invention are given in Table 1, which follows the Examples.
(§2) These tests were conducted by mixing a series of decreasing amounts of the compound under test with a liquid nutrient medium that had been inoculated with one of the test organisms. These preparations were incubated for 24 hours at 37° C. under anaerobic conditions and were then examined for the presence of growth as indicated by the turbidity in the liquid medium. Results were recorded as the lowest concentrations, in mg/l, of test compound that prevented growth of the test organisms (minimal inhibitory concentrations). Each test was run three times and the range of results are indicated.

Data set [2] concerns Bacterioides fragilis. The description is as above. In kind it is cell-based, Bacterioides fragilis (ATCC 23745). The conditions noted are these: ATCC 23745, 24 hours at 37° C., range of three runs; for MIC: 24 h, read-out: Minimum Inhibitory Concentrations, Bacterioides fragilis. The protocol: as §1, §2
Data set [3] relates to Desulfovibrio desulfuricans. In words: in vitro assay against non-pathogenic anaerobe, minimum inhibitory concentration. In kind it is cell-based. As to conditions: 24 hours at 37° C., anaerobic, range of three runs; for MIC: Desulfovibrio desulfuricans, 24 h. The protocol: These preparations were incubated for 24 hours at 37° C. under anaerobic conditions and were then examined for the presence of growth as indicated by the turbidity in the liquid medium. […] The tests were conducted as described for the pathogenic organisms discussed above.

Data set [4] has as its system Propionibacterium acnes. As to the kind of experiment: in vitro anti-anaerobic assay, minimum inhibitory concentration. In kind it is cell-based, Propionibacterium acnes (ATCC 6919). As to conditions: Cutibacterium acnes, ATCC6919, ATCC 6919, 24 hours at 37° C., range of three runs, read-out: Minimum Inhibitory Concentrations, Propionibacterium acnes. As to the method:
as §1, §2

Data set [5] has as its system Microsporum canis. In words: in vitro anti-fungal assay, minimum inhibitory concentration. In kind it is cell-based. As to conditions: aerobic, 30° C., in duplicate, read-out: Minimum Inhibitory Concentrations, Microsporum canis. The protocol:
as §2
(§3) The tests were conducted as described for the anaerobic bacteria with the exception that the organisms were incubated aerobically and kept at 30° C., apart from C.albicans which was kept at 37° C. Each test was run in duplicate.

The subject of data set [6] is Candida albicans. Described as above. The class given is cell-based. The protocol:
as §2, §3

For data set [7], the system named is Trichophyton mentagrophytes. The description is as above. In kind it is cell-based. The conditions noted are these: aerobic, 30° C., in duplicate, read-out: Minimum Inhibitory Concentrations, Trichophyton mentagrophytes. The protocol:
as §2, §3

Data set [8] has as its system Trichophyton rubrum. Described as above. In kind it is cell-based. As to conditions: aerobic, 30° C., in duplicate, read-out: Minimum Inhibitory Concentrations, Trichophyton rubrum. As to the method: as §2, §3
Data set [9] deals with Epidermophyton floccosom. Described as above. In kind it is cell-based, Epidermophyton floccosum. As to conditions: aerobic, 30° C., in duplicate, read-out: Minimum Inhibitory Concentrations, Epidermophyton floccosom. The protocol:
as §2, §3

For data set [10] the following is noted: reported in the literature; cited from earlier work.
For data set [11], the system named is anaerobic bacteria. The conditions noted are these: known from the literature; cited from earlier work.
[12] abbreviates: AIP-BREWER, read-out: Minimum Inhibitory Concentrations, D.desulfuricans AIP-BREWER.
Where [13] appears, read: API SW2, read-out: Minimum Inhibitory Concentrations, D.desulfuricans API SW2.
The mark [14] stands for this setting: API-CORE, read-out: Minimum Inhibitory Concentrations, Desulfovibrio desulfuricans API-CORE.
Where [15] appears, read: strain 3153, aerobic, 37° C., in duplicate, read-out: Minimum Inhibitory Concentrations, C.albicans 3153.
Where [16] appears, read: strain A, aerobic, 37° C., in duplicate, read-out: Minimum Inhibitory Concentrations, Candida albicans A.
The mark [17] stands for this setting: strain B, aerobic, 37° C., in duplicate, read-out: Minimum Inhibitory Concentrations, C.albicans B.
Where [18] appears, read: strain GB, aerobic, 37° C., in duplicate, read-out: Minimum Inhibitory Concentrations, C.albicans GB.

With `Clc1ccc(NN=C2c3ccccc3CCCC2n2ccnc2)c(Cl)c1` (centres unmarked) [1 (a), 6-(1H-imidazol-1-yl)6,7,8,9-tetrahydro-5-benzocycloheptanone, 2,4-dichlorophenylhydrazone, hydrogen oxalate], the figures for the MIC in data set [1], in [2] and in data set [4] were 0.5 to 2.5 µg/mL, 1 to 2.5 µg/mL and 2.5 µg/mL, respectively. Further, the “Minimum Inhibitory Concentrations, D.desulfuricans AIP-BREWER” value in [3] (AIP-BREWER) turned out to be 0.5 mg/L. The “Minimum Inhibitory Concentrations, D.desulfuricans API SW2” value in [3] (API SW2) amounted to 0.5 mg/L.
In the case of `Clc1ccc(NN=C2c3ccccc3CCCC2n2ccnc2)c(Cl)c1` (centres unmarked) [1 (b), 6-(1H-imidazol-1-yl)-6,7,8,9-tetrahydro-5-benzocycloheptanone, 2,4-dichlorophenylhydrazone, hydrochloride], the “Minimum Inhibitory Concentrations, Clostridium sporogenes” value in data set [1] (hydrochloride) lay within 0.5 to 1.0 mg/L. In addition, the “Minimum Inhibitory Concentrations, Bacterioides fragilis” value in data set [2] (hydrochloride) was in the range of 0.5 to 1.0 mg/L. Further, the figures for the MIC in data set [3] (setting [12]), in data set [3] (setting [13]) and in data set [3] (setting [14]) were 0.5 to 0.75 µg/mL, 0.5 to 1 µg/mL and 0.5 µg/mL, respectively.
Turning to `Clc1ccc(NN=C2c3ccccc3CCCCC2n2ccnc2)c(Cl)c1` (centres unmarked) [1 (d), 6-(1H-Imidazol-1-yl)-7,8,9,10-tetrahydro-5(6H)-benzocyclooctanone, 2,4-dichlorophenylhydrazone hydrochloride], the MIC is 0.5 to 0.75 µg/mL in data set [1]; 1 to 2.5 µg/mL in [2]; 0.5 to 1 µg/mL in data set [3] (setting [12]); 0.5 to 0.75 µg/mL in data set [3] (setting [13]); 0.5 to 2.5 µg/mL in data set [3] (setting [14]); 0.5 to 2.5 µg/mL in data set [4].
As to `Clc1ccc(NN=C2c3sccc3CCCC2n2ccnc2)c(Cl)c1` (centres unmarked) [1 (j), 7-(1H-Imidazol-1-yl)-4,5,6,7-tetrahydro-8H-cyclohepta[b]-thiophen-8-one, 2 ,4-dichlorophenylhydrazone hydrogen oxalate], the MIC in data set [1] is 1 to 2.5 µg/mL; in [2], 0.75 to 1 µg/mL; in data set [3] (setting [12]), 0.5 to 0.75 µg/mL; in [3] (setting [13]) it was 0.75 to 1 µg/mL; in data set [3] (setting [14]), 0.75 to 1 µg/mL; in data set [4], 5 µg/mL.
In the case of `Clc1cc(Cl)c(NN=C2c3ccc(Cl)cc3CCCC2n2ccnc2)c(Cl)c1` (centres unmarked) [3 (b), 2-Chloro-6-(1H-imidazol-1-yl)-6,7,8,9-tetrahydro-5-benzocycloheptanone,2,4,6-trichlorophenylhydrazone hydrochloride], the MIC in data set [5] was 25 µg/mL; in data set [6] (setting [15]), 6.2 µg/mL; in data set [6] (setting [16]), 6.2 µg/mL; in data set [6] (setting [17]) it was 6.2 µg/mL; in [6] (setting [18]) it was 6.2 µg/mL; in data set [7], 25 µg/mL. Also, the MIC in data set [1] was 0.75 to 1 µg/mL; in data set [2], 0.75 to 1 µg/mL; in [3] (setting [12]) it was 0.75 µg/mL; in data set [3] (setting [13]), 0.75 to 2.5 µg/mL; in data set [3] (setting [14]), 0.75 to 1 µg/mL; in data set [4] it was 5 µg/mL.
For the molecule `Clc1cc(Cl)c(NN=C2c3ccccc3CCCCC2n2ccnc2)c(Cl)c1` (centres unmarked) [3 (c), 6-(1H-Imidazol-1-yl)-7,8,9,10-tetrahydro-5(6H)-benzocyclooctanone, 2,4,6-trichlorophenylhydrazone hydrochloride], the MIC in data set [1] was 0.5 to 1 µg/mL; in data set [2], 2.5 µg/mL; in data set [3] (setting [12]) it was 0.5 to 0.75 µg/mL; in data set [3] (setting [13]) it was 0.5 to 0.75 µg/mL; in data set [3] (setting [14]), 0.75 to 1 µg/mL; in data set [4], 2.5 µg/mL.
`Clc1cc(Cl)c(NN=C2c3ccccc3CCCC2n2ccnc2)c(Cl)c1` (centres unmarked) [3 (d), 6-(1H-Imidazol-1-yl)-6,7,8,9-tetrahydro-5-benzocycloheptanone, 2,4,6-trichlorophenylhydrazone hydrogen oxalate]: the MIC in data set [5] amounted to 6.2 µg/mL; in data set [6] (setting [15]) it was 12.5 µg/mL; in data set [6] (setting [16]), 6.2 µg/mL; in data set [6] (setting [17]), 6.2 µg/mL; in data set [6] (setting [18]), 12.5 µg/mL; in [8], 1.5 µg/mL. Moreover, the MIC in data set [7] is > 100 µg/mL.
As for `Cl.Clc1cc(Cl)c(NN=C2c3ccccc3OCCC2n2ccnc2)c(Cl)c1` (centres unmarked) [3 (i), 3,4-Dihydro-4-(1H-imidazol-1-yl)-1-benzoxepin-5(2H)-one, 2,4,6-trichlorophenylhydrazone hydrochloride], the MIC came out at 3.1 µg/mL in data set [9]; 3.1 µg/mL in [5]; 12.5 µg/mL in data set [6] (setting [15]); 12.5 µg/mL in data set [6] (setting [16]); 12.5 µg/mL in data set [6] (setting [17]); 6.2 µg/mL in data set [8]. Further, the MIC in data set [7] came to 3.1 µg/mL.
On to `Clc1cc(Cl)c(NN=C2c3ccsc3CCCC2n2ccnc2)c(Cl)c1` (centres unmarked) [3 (l), 5-(1H-Imidazol-1-yl)-5,6,7,8-tetrahydro-4H-cyclohepta[b]thiophen-4-one,2,4,6-trichlorophenylhydrazone hydrogen oxalate], for which the MIC in data set [9] worked out at 6.2 µg/mL; in data set [5], 12.5 µg/mL; in data set [6] (setting [15]), 12.5 µg/mL; in [6] (setting [16]) it was 6.2 µg/mL; in data set [6] (setting [17]), 6.2 µg/mL; in data set [8], 12.5 µg/mL. Also, in data set [7], the MIC came to 25 µg/mL.
As for `Cc1ncc([N+](=O)[O-])n1CCO` [Metronidazole, metronidazole, reference compound], the teratogenicity result in data set [10] was “teratogenic”. For the same molecule, the MIC is 0.5 µg/mL (≈ 2.92 µM) in [1]; 0.5 µg/mL (≈ 2.92 µM) in data set [2]; 0.5 µg/mL (≈ 2.92 µM) in data set [3] (setting [12]); 0.5 µg/mL (≈ 2.92 µM) in data set [3] (setting [13]); 0.5 µg/mL (≈ 2.92 µM) in data set [3] (setting [14]); > 100 µg/mL in data set [4]. In data set [11], the “activity against anaerobic bacteria” value is reported as “active against anaerobic bacteria”.
For the molecule `Clc1ccc(COC(Cn2ccnc2)c2ccc(Cl)cc2Cl)c(Cl)c1` (centres unmarked) [Miconazole, reference compound], the MIC in data set [9] was determined as 6.2 µg/mL (≈ 14.9 µM); in [5] it was 6.2 µg/mL (≈ 14.9 µM); in data set [6] (read-out: Minimum Inhibitory Concentrations, C.albicans 3153), 12.5 µg/mL (≈ 30 µM); in data set [6] (read-out: Minimum Inhibitory Concentrations, C.albicans B) it was 6.2 µg/mL (≈ 14.9 µM); in data set [6] (read-out: Minimum Inhibitory Concentrations, C.albicans GB), 12.5 µg/mL (≈ 30 µM); in data set [6] (read-out: Minimum Inhibitory Concentrations, Candida albicans A), 6.2 µg/mL (≈ 14.9 µM). In addition, the results for the MIC in data set [8] and in data set [7] were 3.1 µg/mL (≈ 7.45 µM) and 1.5 µg/mL (≈ 3.6 µM), respectively.
